# pEC50: −log10 of the molar value.
# System: ZIKV
# Test: microbe, parasite or virus in culture
# Format: cell-based, Zika virus
# Settings: 48 hrs
smiles,measurement,setting,value
"COC(=O)N[C@H](C(=O)N1[C@H](c2nc(Cl)c(-c3ccc4c(c3)COc3cc5ccc6[nH]c([C@@H]7C[C@@H]8CCC[C@@H]8N7C(=O)[C@@H](NC(=O)OC)C(C)(C)C(F)(F)F)nc6c5cc3-4)[nH]2)C[C@@H]2CCC[C@@H]21)C(C)(C)C(F)(F)F [Compound 37, methyl ((S)-1-((2S,3aS,6aS)-2-(4-chloro-5-(2-((2S,3aS,6aS)-1-((S)-4,4,4-trifluoro-2-((methoxycarbonyl)amino)-3,3-dimethylbutanoyl)octahydrocyclopenta[b]pyrrol-2-yl)-1,11-dihydroisochromeno[4′,3′:6,7]naphtho[1,2-d]imidazol-9-yl)-1H-imidazol-2-yl)hexahydrocyclopenta[b]pyrrol-l(2H)-yl)-4,4,4-trilluoro-3,3-dimethyl-1-oxobutan-2-yl)carbamate]",pEC50,,7.88
"COC[C@H]1C[C@@H](c2nc(Cl)c(-c3ccc4c(c3)COc3cc5c(ccc6nc([C@@H]7CC[C@H](C)N7C(=O)[C@@H](NC(=O)OC)C(C)C)[nH]c65)cc3-4)[nH]2)N(C(=O)[C@@H](NC(=O)OC)[C@@H](C)OC)C1 [Compound 5, methyl ((S)-1-((2S,5S)-2-(9-(4-chloro-2-((2S,4S)-1-(N-(methoxycarbonyl)-O-methyl-L-threonyl)-4-(methoxymethyl)pyrrolidin-2-yl)-1H-imidazol-5-yl)-1,11-dihydroisochromeno[4′,3′:6,7]naphtho[1,2-d]imidazol-2-yl)-5-methylpyrrolidin-1-yl)-3-methyl-1-oxobutan-2-yl)carbamate]",pEC50,"Zika virus, Huh-7",6.91
"COC(=O)N[C@H](C(=O)N1[C@@H](C)CC[C@H]1c1nc(C(C)C)c(-c2ccc3c(c2)COc2cc4c(ccc5nc([C@@H]6CC[C@H](C)N6C(=O)[C@@H](NC(=O)OC)C(C)(C)CF)[nH]c54)cc2-3)[nH]1)C(C)(C)CF [Compound 47, methyl ((S)-4-fluoro-1-((2S,5S)-2-(5-(2-((2S,5S)-1-((S)-4-fluoro-2-((methoxycarbonyl)amino)-3,3-dimethylbutanoyl)-5-methylpyrrolidin-2-yl)-1,11-dihydroisochromeno[4′,3′:6,7]naphtho[1,2-d]imidazol-9-yl)-4-isopropyl-1H-imidazol-2-yl)-5-methylpyrrolidin-1-yl)-3,3-dimethyl-1-oxobutan-2-yl)carbamate]",pEC50,"Zika virus, Huh-7",7.66

# Source: patent US12037340B2, “Pentacyclic derivatives as Zika virus inhibitors” (Gilead Sciences, Inc., priority 2021, dated 2024)
